Test results as given in patent publication US10208074B2, “Pyrazole compounds and method for making and using the compounds” (Rigel Pharmaceuticals, Inc., priority 2015, dated 2019).
Like-named read-outs stand apart in the source and are kept apart here.

Experiments:
IL-23p19 = assay: LPS induced IL23p19 in THP-1 cells (with IFNγ primed) assay; type: cell-based, Human; conditions: Homo sapiens, THP-1, 18 h
From the text: LPS Induced IL23p19 in THP-1 Cells (with IFNγ Primed) Assay
THP-1 Cells (ATCC, Cat#TIB-202), Dimethyl Sulfoxide (DMSO) (Sigma-Aldrich, Cat#D2650), RPMI 1640 (Cellgro, Cat#10-040-CM), Fetal Bovine Serum (Sigma, Cat#F4135), Albumin From Bovine Serum (BSA) (Sigma-Aldrich, Cat#A7906), LPS (Serotype K-235, Sigma, Product Number L 2143), IFNγ (Peprotech, Cat#300-02) Capture antibody: Human IL-23p19 ELISA (e-Bioscience, Cat. #14-7238-85), Detection antibody: Primary Mouse Biotinylated anti-human IL-12(p40/p70) (e-Bioscience, Cat. #13-7129-85), Secondary HRP-conjugated Streptavidin (R&D Systems, Cat#DY998), 1×PBST Washing Buffer (PBS-Tween tablet) (VWR International, Cat#80058-558), ELISA Blocking Buffer (PBS with 1% BSA), ELISA Dilution Buffer (PBS with 1% BSA), 384 Well Flat-Bottom, MaxiSorp Black Immuno Plates (Thermo Scientific, Cat#12-565-346), 384 Well Flat-Bottom, White Tissue Culture Plates (Thermo Scientific, Cat#12-565-343), Super Signal ELISA Pico Chemiluminescent Substrate (Thermo Scientific, Cat#37070), Cell Titer Glo reagent (Promega, Cat#G7573), Positive control, IKK2VI inhibitor (Calbiochem, Cat#401483), AquaMax 4000 plate washer (Molecular Devices), Luminometer, Wallac Victor2 1420 Multilabel Counter.
On day 1, 50K/well THP-1 cells were seeded and primed with IFNγ (50 ng/mL) in 384-well plates for about 18 hours in RPMI media with 10% FBS. On day 2, the compound was serially diluted in DMSO from 5 mM in 3-fold dilutions, and then diluted 1:125 in RPMI media with 10% FBS. 50 μL/well 2× compound was added to 50 μL/well THP-1 cells (with IFNγ primed) in duplicate in 384 well tissue culture plates. The cells were pre-incubated with compound for 1 hour at 37° C., 5% CO2 before addition of 10 μL/well 11×LPS to give a final concentration of 1 ug/mL LPS. Day 3, after stimulation for 18 hours at 37° C., 5% CO2, the assay plate was centrifuged and 70 μL/well supernatant was harvested. IL-23p19 protein in 70 μL/well of supernatant was measured by sandwich ELISA, and 25 μl/well Cell Titer Glo reagent was added to the remaining cells to measure compound toxicity.
Maxisorp immuno ELISA plates were pre-coated with 25 μL/well of anti-IL-23p19 capture antibody (2.5 ug/mL) in PBS overnight at room temperature. After washing with 1× PBST, the plates were blocked using 100 μL/well of 1% BSA in PBS for 2 hours at room temperature. The plates were washed three times with 1×PBST and 70 μL/well supernatant were added. The plates were incubated at room temperature for 2 hours with shaking and washed three times with 1×PBST. 25 μL/well of biotin labeled anti-IL-12(p40/p70) detection antibody (100 ng/mL) in PBS with 1% BSA was added and the plates were incubated at room temperature for 2 hours with shaking. After washing three times with 1×PBST, 25 μL/well of streptavidin-HRP (1:200) in PBS with 1% BSA was added and the plates were incubated at room temperature for 20 minutes with shaking. The plates were washed three times with 1× PBST and 25 μL/well of Super Signal ELISA Pico Chemiluminescent Substrate were added. The plates were read with a luminometer, and the chemiluminescence values were entered into Athena (Rigel) for curve fitting, EC50 calculation, and database storage.

IL-23 (p19/p40) = assay: IL23-p19 ELISA, Dendritic, LPS (compound screening using DC cells); type: cell-based, Human
Experimental: Compound Screening Using DC Cells
Human PBMC cells (400 million) obtained from the vendor were transferred into a T-175 flask containing 15 ml RPMI media (10% FBS) and incubate for 2 hours at 37° C. After 2 hours, the media including floating cells was aspirated out carefully and 12 ml of fresh RPMI media (10% FBS) containing GMCSF (100 ng/ml) and IL4 (20 ng/ml) was added, and the flask was kept in a 37° C. incubator for 7 days.
After 3 days, fresh GMCSF (100 ng/ml) and IL4 (20 ng/ml) were added to the flask and the incubation continued. After 7 days, the fully differentiated cells were harvested by spinning down (1200 rpm/5 min) and aspirating the media. The cells were suspended in fresh RPMI media (10% FBS) containing 50 ng/ml IFNγ (1000 U/ml) and then plated (50K/well in 100 μl) onto a white clear bottom 96 well plate and left in a 37° C. incubator for 24 hours.
After 24 hours incubation, 100 μl of RPMI media was added containing 2× concentrated test compound per well to the above cell-culture media (final concentration becomes 1×) and the plates were pre-incubated for 1 hour at 37° C. before stimulating with LPS.
After 1 hour compound pre-incubation, 10 piper well of 20× concentrated LPS solution in RPMI media was added to give a final concentration of 1 μg/ml. The mixture was shaken and incubated the plates at 37° C. for an additional 18 hours.
155 μl of the supernatant was harvested from each well carefully (without the tip touching the bottom of the well) and to the remaining 50 μl/well of the cell culture plate was added 50 μl of Cell Titer Glo reagent. The mixture was incubated for 1-2 minutes on a shaker and the plate was read for luminescence intensity to determine the compound cytotoxicity. The cell culture supernatant collected above was used to carry out IL23 ELISA (65 μl -Supernatant) and IL10 ELISA (90 μl—Supernatant) as described below.
Human IL-23 (p19/p40) ELISA Protocol (e-Biosciences)
To 10.5 ml PBS add 50 μl of anti-IL23 (p19) was added capture antibody (2.5 μg/ml). The mixture was mixed well and 100 μl of the coating solution was added to each well of the 96 well white plates from Pierce. The wells were covered and incubated overnight at 4° C.
The anti-IL23 (p19)-antibody-coated plates were washed 2× using TBST (use plate washer) and blocked using 200 μl of 0.5% Casein for 1.5-2 hours at room temperature with shaking.
The plates were washed 2× using TBST and the supernatant was transferred (65 μl/well) to the above pre-blocked/IL23(p19)-antibody-coated 96 well plate, and incubated at room temperature for 1.5 hours with shaking.
The plates were washed 4× using TBST (plate washer) and 100 μl/well detection antibody solution prepared from 2 μl of biotin labeled anti-IL-12 (p40/p70) antibody in 11 ml 1% BSA/PBS solution (1-5000 dilution) was added. The plates were incubated for 1 hour with shaking at Room temperature.
Again, the plates were washed 4× with TBST and 100 μl of HRP labeled Streptavidin (R&D Systems) solution (10 μl/10 ml 1% BSA solution) was added, and the plates were incubated at room temperature for another 45 minutes with shaking.
After 45 minutes, the plates were washed with TBST 4× and 100 ul/well Super Signal ELISA Pico Chemiluminescent Substrate from Pierce (3.5 ml A+3.5 ml B+3.5 ml MQ water) was added. The plates were shaken for 1-2 minutes then read on a plate reader.

[1] = THP-1 cells, IFNγ primed, LPS 1 ug/mL, 18 hours, 10 pt, read-out: IL23-p19 ELISA, THP1-IFNy, LPS, 10 pt EC50
[2] = Homo sapiens, 18 h, PBMC-derived DC cells, IFNγ primed, LPS 1 μg/ml, 18 hours, 10 pt, read-out: IL23-p19 ELISA, Dendritic, LPS, 10 pt, EC50

Structure (SMILES) | EC50 (IL-23p19; [1]) [µM] | EC50 (IL-23 (p19/p40); [2]) [µM] | EC50 (IL-23p19; read-out: IL23-p19 ELISA, THP1-IFNy, LPS, 10 pt EC50 (μM)) [µM] | EC50 (IL-23 (p19/p40); Homo sapiens, 18 h, read-out: IL23-p19 ELISA, Dendritic, LPS, 10 pt, EC50 (μM)) [µM] | EC50 (IL-23 (p19/p40); PBMC-derived DC cells, IFNγ primed, LPS 1 μg/ml, 18 hours, 10 pt, formic acid, read-out: IL23-p19 ELISA, Dendritic, LPS, 10 pt, EC50) [µM]
CCO[C@@H]1CC[C@H](n2cc(NC(=O)c3csc(-c4cn[nH]c4)n3)c(-c3ccccn3)n2)C1 (relative stereo) [II-147, N-(1-((cis)-3-ethoxycyclopentyl)-3-(pyridin-2-yl)-1H-pyrazol-4-yl)-2-(1H-pyrazol-4-yl)thiazole-4-carboxamide] | 0.0574 | 0.0987 | – | – | –
O=C(Nc1cn([C@H]2CC[C@@H](O)C2)nc1-c1ccccn1)c1csc(-c2cn[nH]c2)n1 (relative stereo) [II-149, N-(1-((cis)-3-hydroxycyclopentyl)-3-(pyridin-2-yl)-1H-pyrazol-4-yl)-2-(1H-pyrazol-4-yl)thiazole-4-carboxamide] | 0.0343 | 0.0568 | – | – | –
O=C(Nc1cn([C@H]2CC[C@H](O)C2)nc1-c1ccccn1)c1csc(-c2cn[nH]c2)n1 (relative stereo) [II-151, N-(1-((trans)-3-hydroxycyclopentyl)-3-(pyridin-2-yl)-1H-pyrazol-4-yl)-2-(1H-pyrazol-4-yl)thiazole-4-carboxamide] | 0.0649 | 0.0622 | – | – | –
Cn1cc(-c2ccc(C(=O)Nc3cn(CC(C)(C)O)nc3-c3ccccn3)o2)cn1 [Compound I-1, N-(1-(2-hydroxy-2-methylpropyl)-3-(pyridin-2-yl)-1H-pyrazol-4-yl)-5-(1-methyl-1H-pyrazol-4-yl)furan-2-carboxamide 2,2,2-trifluoroacetate] | – | – | 5.66 | 3.73 | –
CC(C)(O)Cn1cc(NC(=O)c2ccc(-c3cn[nH]c3)o2)c(-c2ccccn2)n1 [Compound I-3, N-(1-(2-hydroxy-2-methylpropyl)-3-(pyridin-2-yl)-1H-pyrazol-4-yl)-5-(1H-pyrazol-4-yl)furan-2-carboxamide] | 0.424 | 0.362 | – | – | –
CCOCCn1cc(NC(=O)c2ccc(-c3cnn(C(=O)OC(C)(C)C)c3)o2)c(-c2ccccn2)n1 [Compound I-4, tert-butyl 4-(5-((1-(2-ethoxyethyl)-3-(pyridin-2-yl)-1H-pyrazol-4-yl)carbamoyl)furan-2-yl)-1H-pyrazole-1-carboxylate] | 0.713 | 0.619 | – | – | –
COCCn1cc(NC(=O)c2ccc(-c3cn[nH]c3)o2)c(-c2ccccn2)n1 [Compound I-5, N-(1-(2-methoxyethyl)-3-(pyridin-2-yl)-1H-pyrazol-4-yl)-5-(1H-pyrazol-4-yl)furan-2-carboxamide] | 0.0826 | 0.136 | – | – | –
COCCn1cc(NC(=O)c2ccc(-c3c[nH]nc3C)o2)c(-c2ccccn2)n1 [Compound I-6, N-(1-(2-methoxyethyl)-3-(pyridin-2-yl)-1H-pyrazol-4-yl)-5-(3-methyl-1H-pyrazol-4-yl)furan-2-carboxamide formic acid] | 0.264 | – | – | – | 0.993
COCCn1cc(NC(=O)c2ccc(-c3cn[nH]c3)o2)c(-c2ncccn2)n1 [Compound I-7, N-(1-(2-methoxyethyl)-3-(pyrimidin-2-yl)-1H-pyrazol-4-yl)-5-(1H-pyrazol-4-yl)furan-2-carboxamide] | 0.433 | 0.399 | – | – | –
COCCn1cc(NC(=O)c2ccc(-c3c[nH]nc3C)o2)c(-c2ncccn2)n1 [Compound I-8, N-(1-(2-methoxyethyl)-3-(pyrimidin-2-yl)-1H-pyrazol-4-yl)-5-(3-methyl-1H-pyrazol-4-yl)furan-2-carboxamide] | 0.88 | 0.429 | – | – | –
Cn1cc(NC(=O)c2ccc(-c3cn[nH]c3)o2)c(-c2ccc(N3CCOCC3)cn2)n1 [Compound I-105, N-(1-methyl-3-(5-morpholinopyridin-2-yl)-1H-pyrazol-4-yl)-5-(1H-pyrazol-4-yl)furan-2-carboxamide] | – | 0.0265 | – | – | –
CCO[C@H]1C[C@@H](n2cc(NC(=O)c3csc(-c4c[nH]nc4C)n3)c(-c3ccccn3)n2)C1 [II-92, N-(1-((1,3-cis)-3-ethoxycyclobutyl)-3-(pyridin-2-yl)-1H-pyrazol-4-yl)-2-(3-methyl-1H-pyrazol-4-yl)thiazole-4-carboxamide] | – | 0.258 | – | – | –
